{"source": "patent US20100105655A1", "about": "“NOVEL COMPOUNDS 515” (ASTRAZENECA AB, priority 2008, published 2010)", "data": [{"target": "T1, IGFR kinase (Homo sapiens, UniProt P08069)", "T1 construct": "purchased Millipore", "T1 sequence (P08069 31-1367)": "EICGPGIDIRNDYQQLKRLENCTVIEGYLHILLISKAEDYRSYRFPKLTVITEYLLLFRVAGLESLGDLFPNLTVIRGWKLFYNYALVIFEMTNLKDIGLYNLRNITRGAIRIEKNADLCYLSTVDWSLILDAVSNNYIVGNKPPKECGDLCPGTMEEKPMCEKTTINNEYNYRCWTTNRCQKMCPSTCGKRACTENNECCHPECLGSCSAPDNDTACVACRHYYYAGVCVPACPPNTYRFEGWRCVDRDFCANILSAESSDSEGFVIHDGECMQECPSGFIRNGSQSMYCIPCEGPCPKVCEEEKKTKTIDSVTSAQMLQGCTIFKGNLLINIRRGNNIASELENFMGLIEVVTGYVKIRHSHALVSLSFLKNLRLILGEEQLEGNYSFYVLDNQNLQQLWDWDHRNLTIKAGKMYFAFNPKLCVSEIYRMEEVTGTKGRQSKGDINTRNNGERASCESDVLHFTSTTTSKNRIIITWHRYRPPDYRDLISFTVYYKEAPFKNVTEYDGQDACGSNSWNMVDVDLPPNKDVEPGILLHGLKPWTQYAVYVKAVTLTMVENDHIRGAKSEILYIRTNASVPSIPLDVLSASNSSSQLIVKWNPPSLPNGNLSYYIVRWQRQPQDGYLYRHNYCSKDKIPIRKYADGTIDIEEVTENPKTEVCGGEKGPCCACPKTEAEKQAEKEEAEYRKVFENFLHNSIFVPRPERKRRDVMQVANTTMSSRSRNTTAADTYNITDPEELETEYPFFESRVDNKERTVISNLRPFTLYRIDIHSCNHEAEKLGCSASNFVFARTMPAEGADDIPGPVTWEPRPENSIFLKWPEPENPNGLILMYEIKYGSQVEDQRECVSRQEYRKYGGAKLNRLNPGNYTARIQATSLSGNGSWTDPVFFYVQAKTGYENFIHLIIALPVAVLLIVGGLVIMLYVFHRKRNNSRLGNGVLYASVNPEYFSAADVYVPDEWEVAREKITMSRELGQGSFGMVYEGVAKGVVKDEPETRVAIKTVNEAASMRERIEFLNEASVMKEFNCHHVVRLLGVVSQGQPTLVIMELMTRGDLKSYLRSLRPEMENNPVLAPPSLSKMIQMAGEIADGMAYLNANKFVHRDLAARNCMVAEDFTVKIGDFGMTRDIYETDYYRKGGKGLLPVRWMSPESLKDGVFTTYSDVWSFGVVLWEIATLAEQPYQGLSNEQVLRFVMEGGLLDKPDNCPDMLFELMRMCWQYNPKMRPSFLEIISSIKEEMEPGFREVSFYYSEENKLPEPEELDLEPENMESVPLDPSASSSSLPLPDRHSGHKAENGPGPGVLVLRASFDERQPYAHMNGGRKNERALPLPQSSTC", "experiment": "Enzyme assay (c), IGFR kinase, Caliper LabChip", "assay_type": "biochemical", "settings": "30 nM IGFR kinase, 6 uM ATP, 3 uM peptide mix; read-out: IGFR IC50", "experimental": "For Echo dosing the solvent was 100% DMSO. A master plate was prepared with 40 ul of 10 mM stock solution of the test compound in DMSO in quadrant 1 of a Labcyte 384 well plate. A 1 in 100 dilution was made from quadrant 1 into quadrant 2 by removing 0.4 ul and adding it to 39.6 ul of DMSO. Subsequent 1 in 100 dilutions were made into quadrant 3 from quadrant 2 and quadrant 4 from quadrant 3.\nMultiple 2.5 nl droplets were dispensed from each quadrant of the master plate to generate the dose range that was required in the test. The dose range most commonly used was as follows: 100 uM, 30 uM, 10 uM, 3 uM, 1 uM, 0.3 uM, 0.1 uM, 0.03 uM, 0.01 uM, 0.003 uM, 0.001 uM, 0.0001 uM. Each well was backfilled with dimethyl sulfoxide (DMSO) to a total volume of 120 nl, such that when the enzyme and substrate mix was added the final DMSO concentration was 1%.\nDMSO was added to max control wells as 120 nl, minimum control wells were treated with 120 nl of compound at a concentration that inhibited the enzyme activity 100%.\nIntegration of the substrate and product peaks was carried out using Caliper LabChip software and IC50 curves were calculated using Origin™ software.", "units": {"IC50": "nM"}, "values": [{"smiles": "COc1cc(N2CCN(C(=O)[C@H](C)N)CC2)ccc1Nc1ncc(Cl)c(-c2cnc3cc(C)ccn23)n1", "note": "[Example 258, (2S)-2-amino-1-[4-[4-[[5-chloro-4-(7-methylimidazo[1,2-a]pyridin-3-yl)pyrimidin-2-yl]amino]-3-methoxy-phenyl]piperazin-1-yl]propan-1-one]", "IC50": 5}, {"smiles": "COc1ccc(N2CCN(C(=O)CN(C)C)CC2)cc1Nc1ncc(C)c(-c2cnn3ccccc23)n1", "note": "[Example 236, 2-(dimethylamino)-1-[4-[4-methoxy-3-[(5-methyl-4-pyrazolo[1,5-a]pyridin-3-yl-pyrimidin-2-yl)amino]phenyl]piperazin-1-yl]ethanone]", "IC50": 49}, {"smiles": "COc1cc(N2CCN(CCO)CC2)ccc1Nc1ncc(F)c(-c2cnc3c(F)cccn23)n1", "note": "[Example 195, 2-[4-[4-[[5-fluoro-4-(8-fluoroimidazo[1,2-a]pyridin-3-yl)pyrimidin-2-yl]amino]-3-methoxy-phenyl]piperazin-1-yl]ethanol]", "IC50": 33}, {"smiles": "COc1cc(CC(CO)CO)ccc1Nc1ncc(Cl)c(-c2cnc3c(F)cccn23)n1", "note": "[Example 193, 2-[[4-[[5-chloro-4-(8-fluoroimidazo[1,2-a]pyridin-3-yl)pyrimidin-2-yl]amino]-3-methoxy-phenyl]methyl]propane-1,3-diol]", "IC50": 25}, {"smiles": "COc1cc(C2CCN(C(C)=O)CC2)ccc1Nc1ncc(C(F)(F)F)c(-c2cnc3ccccn23)n1", "note": "[Example 108, 1-[4-[4-[[4-imidazo[1,2-a]pyridin-3-yl-5-(trifluoromethyl)pyrimidin-2-yl]amino]-3-methoxy-phenyl]-1-piperidyl]ethanone]", "IC50": 14}, {"smiles": "COc1cc(CNCCO)ccc1Nc1ncc(Cl)c(-c2cnc3ccccn23)n1", "note": "[Example 21.1, 2-[[4-[(5-chloro-4-imidazo[1,2-a]pyridin-3-yl-pyrimidin-2-yl)amino]-3-methoxy-phenyl]methylamino]ethanol]", "IC50": 19}, {"smiles": "COc1cc(C2CCN(C(=O)CO)CC2)ccc1Nc1ncc(Cl)c(-c2cnc3ccc(F)cn23)n1", "note": "[Example 244, 1-[4-[4-[[5-chloro-4-(6-fluoroimidazo[1,2-a]pyridin-3-yl)pyrimidin-2-yl]amino]-3-methoxy-phenyl]-1-piperidyl]-2-hydroxy-ethanone]", "IC50": 5}, {"smiles": "COc1cc(N2CCN(CCO)CC2)ccc1Nc1ncc(OC)c(-c2cnc3ccccn23)n1", "note": "[Example 95, 2-[4-[4-[(4-imidazo[1,2-a]pyridin-3-yl-5-methoxy-pyrimidin-2-yl)amino]-3-methoxy-phenyl]piperazin-1-yl]ethanol]", "IC50": 60}, {"smiles": "COc1cc(N2CCN(C(C)=O)CC2)ccc1Nc1ncc(F)c(-c2cnn3ccccc23)n1", "note": "[Example 170, 1-[4-[4-[(5-fluoro-4-pyrazolo[1,5-a]pyridin-3-yl-pyrimidin-2-yl)amino]-3-methoxy-phenyl]piperazin-1-yl]ethanone]", "IC50": 67}, {"smiles": "COc1cc(N2CCN(C(=O)[C@@H](C)N)CC2)ccc1Nc1ncc(Cl)c(-c2cnc3cc(C)ccn23)n1", "note": "[Example 254, (2R)-2-amino-1-[4-[4-[[5-chloro-4-(7-methylimidazo[1,2-a]pyridin-3-yl)pyrimidin-2-yl]amino]-3-methoxy-phenyl]piperazin-1-yl]propan-1-one]", "IC50": 5}, {"smiles": "COc1cc(CN2CC[C@H](O)C2)ccc1Nc1ncc(Cl)c(-c2cnc3ccccn23)n1", "note": "[Example 20, (3S)-1-[[4-[(5-chloro-4-imidazo[1,2-a]pyridin-3-yl-pyrimidin-2-yl)amino]-3-methoxy-phenyl]methyl]pyrrolidin-3-ol]", "IC50": 19}, {"smiles": "COc1cc(C2CCN(C(=O)[C@@H](C)O)CC2)ccc1Nc1ncc(Cl)c(-c2cnc3ccccn23)n1", "note": "[Example 28.2, (2R)-1-[4-[4-[(5-chloro-4-imidazo[1,2-a]pyridin-3-yl-pyrimidin-2-yl)amino]-3-methoxy-phenyl]-1-piperidyl]-2-hydroxy-propan-1-one]", "IC50": 6}, {"smiles": "COc1cc(C2CCN(C(=O)CO)CC2)ccc1Nc1ncc(Cl)c(-c2cnc3c(F)cccn23)n1", "note": "[Example 179, 1-[4-[4-[[5-chloro-4-(8-fluoroimidazo[1,2-a]pyridin-3-yl)pyrimidin-2-yl]amino]-3-methoxy-phenyl]-1-piperidyl]-2-hydroxy-ethanone]", "IC50": 8}, {"smiles": "COc1cc(OC2CN(C(=O)C3(O)CC3)C2)ccc1Nc1ncc(Cl)c(-c2cnc3ccccn23)n1", "note": "[Example 27.5, [3-[4-[(5-chloro-4-imidazo[1,2-a]pyridin-3-yl-pyrimidin-2-yl)amino]-3-methoxy-phenoxy]azetidin-1-yl]-(1-hydroxycyclopropyl)methanone]", "IC50": 23}, {"smiles": "COc1cc(N2CCN(C(=O)[C@@H](N)CO)CC2)ccc1Nc1ncc(Cl)c(-c2cnc3ccccn23)n1", "note": "[Example 24.7, (2S)-2-amino-1-[4-[4-[(5-chloro-4-imidazo[1,2-a]pyridin-3-yl-pyrimidin-2-yl)amino]-3-methoxy-phenyl]piperazin-1-yl]-3-hydroxy-propan-1-one]", "IC50": 5}, {"smiles": "COc1cc(N2CC3CNCC(C2)O3)ccc1Nc1ncc(Cl)c(-c2cnn3ccccc23)n1", "note": "[Example 149, 5-chloro-N-[2-methoxy-4-(9-oxa-3,7-diazabicyclo[3.3.1]nonan-7-yl)phenyl]-4-pyrazolo[1,5-a]pyridin-3-yl-pyrimidin-2-amine]", "IC50": 7}, {"smiles": "COc1cc(CNCCCO)ccc1Nc1ncc(Cl)c(-c2cnc3ccccn23)n1", "note": "[Example 21.3, 3-[[4-[(5-chloro-4-imidazo[1,2-a]pyridin-3-yl-pyrimidin-2-yl)amino]-3-methoxy-phenyl]methylamino]propan-1-ol]", "IC50": 20}, {"smiles": "COc1cc(OC2CCN(C)C2)ccc1Nc1ncc(Br)c(-c2cnc3ccccn23)n1", "note": "(centres unmarked) [Example 123, 5-bromo-4-imidazo[1,2-a]pyridin-3-yl-N-[2-methoxy-4-(1-methylpyrrolidin-3-yl)oxy-phenyl]pyrimidin-2-amine]", "IC50": 5}, {"smiles": "COc1cc(N2CCN(C[C@@H](C)O)CC2)ccc1Nc1ncc(F)c(-c2cnc3ccccn23)n1", "note": "[Example 90, (2R)-1-[4-[4-[(5-fluoro-4-imidazo[1,2-a]pyridin-3-yl-pyrimidin-2-yl)amino]-3-methoxy-phenyl]piperazin-1-yl]propan-2-ol]", "IC50": 37}, {"smiles": "COc1cc(N2CC3CN(C(=O)CO)CC(C2)O3)ccc1Nc1ncc(Cl)c(-c2cnc3c(F)cccn23)n1", "note": "[Example 212, 1-[7-[4-[[5-chloro-4-(8-fluoroimidazo[1,2-a]pyridin-3-yl)pyrimidin-2-yl]amino]-3-methoxy-phenyl]-9-oxa-3,7-diazabicyclo[3.3.1]nonan-3-yl]-2-hydroxy-ethanone]", "IC50": 19}, {"smiles": "COc1cc(N2CCN(C[C@@H](O)CO)CC2)ccc1Nc1ncc(Cl)c(-c2cnc3ccccn23)n1", "note": "[Example 53, (2R)-3-[4-[4-[(5-chloro-4-imidazo[1,2-a]pyridin-3-yl-pyrimidin-2-yl)amino]-3-methoxy-phenyl]piperazin-1-yl]propane-1,2-diol]", "IC50": 8}, {"smiles": "COc1cc(C(=O)N2CCN(CCO)CC2)ccc1Nc1ncc(Cl)c(-c2cnc3ccccn23)n1", "note": "[Example 32, [4-[(5-chloro-4-imidazo[1,2-a]pyridin-3-yl-pyrimidin-2-yl)amino]-3-methoxy-phenyl]-[4-(2-hydroxyethyl)piperazin-1-yl]methanone]", "IC50": 19}, {"smiles": "CNCC(=O)N1CCC(c2ccc(Nc3ncc(Cl)c(-c4cnc5c(F)cccn45)n3)c(OC)c2)CC1", "note": "[Example 182, 1-[4-[4-[[5-chloro-4-(8-fluoroimidazo[1,2-a]pyridin-3-yl)pyrimidin-2-yl]amino]-3-methoxy-phenyl]-1-piperidyl]-2-(methylamino)ethanone]", "IC50": 1}]}]}
